Measured values from ChEMBL document CHEMBL3880430, “Arginine derivatives with NP-1 antagonistic activity” (2012).
pIC50: −log10 of the molar value. Activity calls are given as the source filed them. No cut-off for these calls is given here.

Legend:
[1] = Cytotoxicity in human A549 cells assessed as decrease in cell viability after 44 hrs by XTT assay; assay type: functional, cell-based; conditions: A549, 44 h
[2] = biological target: Neuropilin-1 (Homo sapiens) (UniProt O14786); assay: Inhibition of neuropilin-1 in human DU145 cells assessed as decrease in cell adhesion to extracellular matrix proteins at 10 to 100 uM after 1.5 hrs by calcein-AM dye based fluorescence assay; conditions: DU-145
[3] = biological target: Neuropilin-1 (Homo sapiens) (UniProt O14786); assay: Inhibition of neuropilin-1 in human ACHN cells assessed as decrease in cell migration at 10 to 100 uM after 4 hrs by trans-well assay; assay type: cell-based
[4] = biological target: Neuropilin-1 (Homo sapiens) (UniProt O14786); assay: Inhibition of neuropilin-1 in human A549 cells assessed as decrease in cell migration at 10 to 100 uM after 4 hrs by trans-well assay; assay type: cell-based

Neuropilin-1 (Homo sapiens), sequence (O14786 whole entry): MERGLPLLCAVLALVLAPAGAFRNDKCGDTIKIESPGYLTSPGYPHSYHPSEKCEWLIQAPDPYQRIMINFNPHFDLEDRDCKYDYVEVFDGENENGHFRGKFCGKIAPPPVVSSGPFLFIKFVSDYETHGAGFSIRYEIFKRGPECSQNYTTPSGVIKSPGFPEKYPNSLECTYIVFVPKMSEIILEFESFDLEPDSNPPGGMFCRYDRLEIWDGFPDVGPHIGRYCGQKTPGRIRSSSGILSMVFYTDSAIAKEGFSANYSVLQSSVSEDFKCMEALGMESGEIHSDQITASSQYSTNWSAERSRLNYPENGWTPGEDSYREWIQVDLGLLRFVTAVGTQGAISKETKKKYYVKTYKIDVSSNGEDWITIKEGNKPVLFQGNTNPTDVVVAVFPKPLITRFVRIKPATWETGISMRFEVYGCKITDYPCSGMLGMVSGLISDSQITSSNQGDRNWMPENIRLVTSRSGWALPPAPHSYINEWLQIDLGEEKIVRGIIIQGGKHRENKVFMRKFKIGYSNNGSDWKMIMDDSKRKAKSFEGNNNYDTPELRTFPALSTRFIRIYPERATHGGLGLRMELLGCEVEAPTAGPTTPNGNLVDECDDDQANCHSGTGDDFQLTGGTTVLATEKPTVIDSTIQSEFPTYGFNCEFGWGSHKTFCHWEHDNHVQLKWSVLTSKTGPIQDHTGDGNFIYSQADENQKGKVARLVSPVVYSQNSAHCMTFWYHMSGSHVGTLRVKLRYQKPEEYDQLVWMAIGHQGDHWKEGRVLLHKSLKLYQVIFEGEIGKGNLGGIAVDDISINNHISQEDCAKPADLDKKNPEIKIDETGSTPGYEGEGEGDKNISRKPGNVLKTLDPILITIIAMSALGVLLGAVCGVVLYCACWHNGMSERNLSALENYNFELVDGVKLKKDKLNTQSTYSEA

Q: With `N=C(N)NCCC[C@H](NC(=O)c1sccc1NS(=O)(=O)c1cccc(NCc2ccccn2)c1)C(=O)O` as the compound, how does the pIC50 [1] read?
A: > 4.70

Q: With `Cc1noc(C)c1-c1cc2c(c(S(=O)(=O)Nc3ccsc3C(=O)N[C@@H](CCCNC(=N)N)C(=O)O)c1)OCC2` as the compound, how does the pIC50 [1] read?
A: > 4.70

Q: With `N=C(N)NCCC[C@H](NC(=O)c1sccc1NS(=O)(=O)c1cc2ccccc2o1)C(=O)O` as the compound, how does the pIC50 [1] read?
A: > 4.70

Q: With `Cc1cc(CNc2cccc(S(=O)(=O)Nc3ccsc3C(=O)N[C@@H](CCCNC(=N)N)C(=O)O)c2)n(C)n1` as the compound, how does the pIC50 [1] read?
A: > 4.70

Q: With `Cc1nn(C)c(Cl)c1CNc1cccc(S(=O)(=O)Nc2ccsc2C(=O)N[C@@H](CCCNC(=N)N)C(=O)O)c1` as the compound, how does the pIC50 [1] read?
A: > 4.70

Q: With `N=C(N)NCCC[C@H](NC(=O)c1sccc1NS(=O)(=O)c1cccc(CCCN)c1)C(=O)O` as the compound, how does the pIC50 [1] read?
A: > 4.70

Q: With `N=C(N)NCCC[C@H](NC(=O)c1sccc1NS(=O)(=O)c1cc2ccccc2s1)C(=O)O` as the compound, how does the pIC50 [1] read?
A: > 4.70

Q: With `Cc1nc(CNc2cccc(S(=O)(=O)Nc3ccsc3C(=O)N[C@@H](CCCNC(=N)N)C(=O)O)c2)c(C)o1` as the compound, how does the pIC50 [1] read?
A: > 4.70

Q: With `N=C(N)NCCC[C@H](NC(=O)c1sccc1NS(=O)(=O)c1cccc(CCc2cccnc2)c1)C(=O)O` as the compound, how does the pIC50 [1] read?
A: > 4.70

Q: With `N=C(N)NCCC[C@H](NC(=O)c1sccc1NS(=O)(=O)c1ccccc1[N+](=O)[O-])C(=O)O` as the compound, how does the pIC50 [1] read?
A: > 4.70

Q: Which inhibition [2] does the source give for `N=C(N)NCCC[C@H](NC(=O)c1sccc1NS(=O)(=O)c1ccc(N)cc1)C(=O)O` here?
A: Active

Q: And the inhibition [3]?
A: Active

Q: And the inhibition [4]?
A: Active

Q: And the pIC50 [1]?
A: > 4.70

Q: With `N=C(N)NCCC[C@H](NC(=O)c1sccc1NS(=O)(=O)c1cccc(C#CCN)c1)C(=O)O` as the compound, how does the pIC50 [1] read?
A: > 4.70

Q: With `N=C(N)NC(=O)CC[C@H](NC(=O)c1sccc1NS(=O)(=O)c1ccccc1[N+](=O)[O-])C(=O)O` as the compound, how does the pIC50 [1] read?
A: > 4.70

Q: With `Cc1noc(C)c1-c1cccc(S(=O)(=O)Nc2ccsc2C(=O)N[C@@H](CCCNC(=N)N)C(=O)O)c1` as the compound, how does the pIC50 [1] read?
A: > 4.70

Q: With `CC(=O)Nc1ccc(S(=O)(=O)Nc2ccsc2C(=O)N[C@@H](CCCNC(=N)N)C(=O)O)cc1` as the compound, how does the pIC50 [1] read?
A: > 4.70

Q: With `N=C(N)NCCC[C@H](NC(=O)c1sccc1NS(=O)(=O)c1cccc(N)c1)C(=O)O` as the compound, how does the pIC50 [1] read?
A: > 4.70

Q: With `Cc1ccc2nsnc2c1S(=O)(=O)Nc1ccsc1C(=O)N[C@@H](CCCNC(=N)N)C(=O)O` as the compound, how does the pIC50 [1] read?
A: > 4.70

Q: With `CN1CCOc2cc(-c3cc4c(c(S(=O)(=O)Nc5ccsc5C(=O)N[C@@H](CCCNC(=N)N)C(=O)O)c3)OCC4)cnc21` as the compound, how does the pIC50 [1] read?
A: > 4.70

Q: With `N=C(N)NCCC[C@H](NC(=O)c1sccc1NS(=O)(=O)c1ccccc1N)C(=O)O` as the compound, how does the pIC50 [1] read?
A: > 4.70
